“And” between values parts separate entries of the source, which are not always exact repeats. Equal entries are not always repeated. Where two headings read alike, the source gives them in different places.
Legend:
CL97 = type: cell-based, human
H146 = assay: Cytotoxicity SCLC 72 hr alamar blue; type: cell-based, human
CV1 renal fibroblasts = assay: Cytotoxicity normal tissue 72 hr; type: cell-based, African green monkey (Cercopithecus aethiops)
H3255 = type: cell-based, human
HS578 breast epithelium = assay: Cytotoxicity normal tissue 72 hr; type: cell-based, human
BMMSC BM mesenchyme = assay: Cytotoxicity normal tissue 72 hr; type: cell-based, human
[1] = system: HUVEC umbilical endothelium; assay: Cytotoxicity normal tissue 72 hr; type: cell-based, human
H647 = type: cell-based, human
MS-5 adult BM stroma = assay: Cytotoxicity normal tissue 72 hr; type: cell-based, mouse
H69 = assay: Cytotoxicity SCLC 72 hr alamar blue; type: cell-based, human
HCC15 = type: cell-based, human
H1975 = type: cell-based, human
H719 = assay: Cytotoxicity SCLC 72 hr alamar blue; type: cell-based, human
HL-1 cardiomyocyte = assay: Cytotoxicity normal tissue 72 hr; type: cell-based; settings: HL-1, 72 hr
H60 = assay: Cytotoxicity SCLC 72 hr alamar blue; type: cell-based, human
[2] = system: BMEC-hTert BM endothelium; type: cell-based, human
H2228 = type: cell-based, human
H209 = assay: Cytotoxicity SCLC 72 hr alamar blue; type: cell-based, human
H82 = assay: Cytotoxicity SCLC 72 hr alamar blue; type: cell-based, human
EBC1 = type: cell-based, human
[3] = system: AML-2 CD34+ cells in NSG mice; assay: Primary MLL-AF9+ pediatric AML (AML-2) xenograft; type: in vivo, mouse; settings: 30 mg/kg Q10D2x from day 7
OP9 calvarial stroma = assay: Cytotoxicity normal tissue 72 hr; type: cell-based; settings: OP9 (mouse)
MA-10-W51 = assay: Cytotoxicity leukemia; type: cell-based, human; settings: growth factor dependent MA-10-W51
Source text: Human cord blood CD34+ cells transduced with MLL-AF9 gene: MA-10, MA-18. Human bone marrow CD34+ cells transduced with MLL-AF9 gene: MA-23. Human cord blood CD34+ cells transduced with MLL-AF9 and N-ras genes: MA-9.3, […] ).

Karpas-422 = settings: human
Experimental: (§1) After 72 hours, the cultures were pulsed with Alamar Blue overnight, and the fluorescent intensity of resulted cultures was measured by a Synergy H1 plate-reader (BioTek Inc).

[4] = system: nude mice bearing prostate 22Rv/HL2; assay: Complete blood count, 22Rv/HL2 xenograft mice; settings: 24 hrs after last treatment
[5] = Pharmacokinetics, single IV 1 mg/kg or oral 10 mg/kg; type: in vivo, Sprague Dawley rats; settings: for oral absorption: 10 mg/kg
Experimental: A single intravenous dose was administered via an indwelling catheter in the jugular vein to a group of 2 male rats at a dose level of 1.0 mg/kg. The formulations were prepared as a solution in 5.0% w/v DMSO with 10% w/v Cremophor in distilled water. […] The formulations were prepared as a solution in 0.5% w/v CMC in distilled water. Serial blood samples were collected from the jugular vein catheter up to 24 h post-dose from all animals in groups.

LY1 = settings: human
Experimental: as §1

Microsome stability = settings: rat, microsomes
Ly19 = assay: cells; settings: Homo sapiens, read-out: cytotoxicity IC50
JEKO-1 = settings: human
Experimental: as §1

U2932 = settings: human
Experimental: as §1

NECB-1 = assay: Cytotoxicity mantle cell lymphoma; settings: read-out: cytotoxicity IC50; NECB-1, mantle cell lymphoma
Experimental: as §1

[6] = Pharmacokinetics, IV bolus 10 mg/kg; type: in vivo, Sprague-Dawley rats; settings: rat
Experimental: Serial blood samples were collected from the jugular vein at 0, 5, 10, 15, 30, 45, 60, 90, 120, 150, 180, 240, 300, 360 min after dosing. […] All pharmacokinetic analysis was carried out using the WinNonlin Standard Edition Version 1.0 (Scientific Consulting Inc., Apex, NC, USA).

SUDHL-4 = settings: human
Experimental: as §1

Pfeiffer = settings: human
Experimental: as §1

[7] = system: spontaneous murine B-cell lymphoma; settings: mouse
[8] = male, Sprague-Dawley, plasma, IV 10 mg/kg, n=5
[9] = male, Sprague-Dawley, plasma, iv, 10 mg/kg, n=5

N.N.[Cl][Pt][Cl] [Cisplatin]
IC50 (CL97): < 15 µM
IC50 (H146): 3.77 µM
IC50 (CV1 renal fibroblasts; read-out: IC50): 97.9 µM
IC50 (H3255): ≥ 25 µM
IC50 (HS578 breast epithelium): > 100 µM
IC50 (BMMSC BM mesenchyme): 20 µM
IC50 ([1]; read-out: IC50): 50 µM
IC50 (H647): 8.75 µM
IC50 (MS-5 adult BM stroma; read-out: IC50): 22 µM
IC50 (H69): 3.42 µM
IC50 (HCC15): ≥ 85 µM
IC50 (H1975): ≥ 10 µM
IC50 (H719): 1.12 µM
IC50 (HL-1 cardiomyocyte): 47 µM
IC50 (H60): 2.09 µM
IC50 ([2]; read-out: IC50): 20 µM
IC50 (H2228): ≥ 25 µM
IC50 (H209): 0.31 µM
IC50 (H82): ≥ 20 µM
IC50 (EBC1): ≥ 100 µM

CN(C)CCNC(=O)c1cccc(NC(=O)Nc2ccc(N(CCCl)CCCl)cc2)c1 [BO-1055, Ureidomustine]
survival longer than control [3]: 48 days
IC50 (OP9 calvarial stroma): ≥ 10 µM
IC50 (CV1 renal fibroblasts; Chlorocebus sabaeus, Fibroblast, 72 h): > 100 µM
IC50 [1]: 50 µM
IC50 (MS-5 adult BM stroma; MS-5 (mouse), 72 hr): ≥ 10 µM
cytotoxicity, dose titration (FIG. 9) (MA-10-W51): highly cytotoxic
IC50 (Karpas-422): 5.85 µM
BASO [4]: 0.06 10^3/μL
EOS [4]: 0.14 10^3/μL
LYM [4]: 1.52 10^3/μL
MONO [4]: 0.08 10^3/μL
NEU [4]: 0.83 10^3/μL
PLT [4]: 195 10^3/μL
RBC [4]: 9.52 10^6/μL
WBC [4]: 2.98 10^3/μL
AUC (0-last) ([5]; IV 1 mg/kg, rat): 925.81 ng·h/mL
AUC (0-∞) ([5]; IV 1 mg/kg, rat): 934.93 ng·h/mL
CLss ([5]; IV 1 mg/kg, rat): 18.00 mL/min/kg
Vss ([5]; IV 1 mg/kg, rat): 0.15 L/kg
t1/2 ([5]; IV 1 mg/kg, rat): 34.8 min
C0 ([5]; male, Sprague Dawley, plasma, IV 1 mg/kg, rat): 12000 ng/mL
plasma levels after oral administration ([5]; oral 10 mg/kg, LLOQ […]): No quantifiable levels
oral absorption ([5]; oral 10 mg/kg, rat): no oral absorption
oral absorption ([5]; oral 10 mg/kg, rat, listed as ureidomustine): No Oral Absorption
IC50 (LY1): 3.86 µM
IC50 ([2]; BMEC-hTert, 72 hr): ≥ 10 µM
intrinsic clearance (Microsome stability): High intrinsic clearance
IC50 (Ly19): 0.29 µM
IC50 (JEKO-1): 0.27 µM
IC50 (U2932): 2.22 µM
IC50 (NECB-1): 7.71 µM and 8.41 µM
tissue distribution ([6]; IV 10 mg/kg): accumulated mainly in the kidney, with only a limited amount detected in the brain
Cl ([6]; IV 10 mg/kg, n=5, 10 mg/kg): 39.2 ± 10.6 mL/min per kg
AUC [6, 8]: 4450 ng·h/mL
Cmax [6, 8]: 13400 ± 6170 ng/mL
clearance [6, 9]: 39.4 ± 10.6 mL/min/kg
half-life [6, 9]: 46.2 min
IC50 (SUDHL-4): 1.95 µM
IC50 (Pfeiffer): 3.87 µM
IC50 [7]: 0.46 µM
